Read-outs that look alike come from different tables or passages of the source.
Tests used:
A1 receptor = target: T1, A1 receptor (Rattus norvegicus, UniProt P25099); assay: A1 adenosine receptor binding, displacement of 3H-CHA, whole rat brain membranes; conditions: 3H-CHA displacement, 25° C., 60 minutes
T1 construct: using a membrane preparation of whole rat brain; from tissue; host or cells: whole rat brain membranes
T1 sequence (P25099 1-326): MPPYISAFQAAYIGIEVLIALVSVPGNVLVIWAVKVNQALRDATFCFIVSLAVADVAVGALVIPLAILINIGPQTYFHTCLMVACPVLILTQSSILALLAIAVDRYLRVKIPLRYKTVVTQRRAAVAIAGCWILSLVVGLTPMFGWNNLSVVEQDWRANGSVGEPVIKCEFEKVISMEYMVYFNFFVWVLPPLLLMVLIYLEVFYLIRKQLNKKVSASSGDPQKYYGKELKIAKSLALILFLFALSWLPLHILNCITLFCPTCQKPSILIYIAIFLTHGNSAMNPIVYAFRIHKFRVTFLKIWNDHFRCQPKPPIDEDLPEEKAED
Method: Non-specific binding is assessed in the presence of 1 mM theophylline.
(§1) The assays are run in glass test tubes in duplicate at 25° C. Once the membranes are added, the tubes are vortexed and incubated at 25° C. for 60 minutes (A1 assay) or 90 minutes (A2 assay) on a rotary shaker. The assay tubes are vortexed halfway through the incubation and again near the end. The assays are terminated by rapid filtration through 2.4 cm GF/B filters using a Brandel Cell Harvestor. The test tubes are washed three times with cold 50 mM tris-HCl (pH 7.7 or 7.4), with filtration being completed within 15 seconds. The damp filter circles are placed in glass scintillation vials filled with 10 ml of Aquasol II (New England Nuclear). The vials are allowed to shake overnight on a rotary shaker and are placed into a liquid scintillation analyzer for two minute counts. IC50 values for receptor binding, i.e. the concentration at which a compound of Formula I displaced the radiolabeled standard, are obtained using a curve-fitting computer program (RS/1, Bolt, Beranek and Newman, Boston, Mass.).

A2 receptor = target: T2, A2 receptor (Rattus norvegicus, UniProt P30543); assay: A2 adenosine receptor binding, displacement of 3H-CGS 21680, rat brain striatum membranes; conditions: 3H-CGS 21680 displacement, rat brain striatum membranes, 25° C., 90 minutes; read-out: Adenosine Receptor Binding Activity/IC50 (nM) A2
T2 construct: using membranes from rat brain striatum; from tissue; host or cells: rat brain striatum membranes
T2 sequence (P30543 whole entry): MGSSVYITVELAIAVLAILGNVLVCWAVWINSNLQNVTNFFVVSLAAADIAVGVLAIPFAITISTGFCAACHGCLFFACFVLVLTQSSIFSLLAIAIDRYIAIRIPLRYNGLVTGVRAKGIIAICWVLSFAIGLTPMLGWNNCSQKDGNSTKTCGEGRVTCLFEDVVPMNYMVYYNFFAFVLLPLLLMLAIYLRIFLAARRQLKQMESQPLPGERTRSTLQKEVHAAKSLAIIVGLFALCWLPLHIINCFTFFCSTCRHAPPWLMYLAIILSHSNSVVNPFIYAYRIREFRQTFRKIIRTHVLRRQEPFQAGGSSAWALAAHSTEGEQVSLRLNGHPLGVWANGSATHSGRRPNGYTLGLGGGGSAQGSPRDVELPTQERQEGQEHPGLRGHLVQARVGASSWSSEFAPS
Method: Non-specific binding is assessed in the presence of 20 μm 2-chloroadenosine.
as §1

swine coronary arteries = assay: In vitro vasorelaxation in isolated swine coronary arteries; type: cell-based
Method: Swine coronary arteries are obtained from a local slaughter house, dissected carefully and cleaned of fat, blood and adhering tissue. Rings approximately 2-3 mm wide are cut and transferred to water-jacketed tissue baths (10 mL) filled with warm (37° C.), oxygenated (O2/CO2:95%/5%) Krebs-Henseleit buffer and mounted on L-shaped hooks between stainless steel rods and a force transducer. […] PGF2a, before being exposed to 3 μM PGF2a.

[1] = Sus scrofa, read-out: Vasorelaxation in Swine Coronary Artery/IC50 (μM)
[2] = 50% reduction in tension of rings contracted with 3 μM PGF2a, read-out: Vasorelaxation in Swine Coronary Artery/IC50

## CCNC(=O)C1CC(n2cnc3c(NCCc4nccs4)ncnc32)C(O)C1O (racemic) [Example 25, (±)-N^6-[2-(2″-thiazolyl)ethyl]-carbocyclic adenosine-5′-N-ethyl carboxamide]
A1 receptor
  IC50: 1260 nM
A2 receptor
  IC50: 355 nM
Swine coronary arteries; [1]
  IC50: 0.64 µM

## CCNC(=O)C1CC(n2cnc3c(NCCc4ccsc4)ncnc32)C(O)C1O (racemic) [Example 28, (±)-N^6-[1-(thiopen-3-yl)ethan-2-yl]carbocyclic adenosine-5′-N-ethyl carboxamide]
A1 receptor
  IC50: 417 nM
A2 receptor
  IC50: > 1000 nM

## CCNC(=O)[C@H]1C[C@@H](n2cnc3c(N[C@@H](C)Cc4ccc(Cl)s4)ccnc32)[C@H](O)[C@@H]1O (relative stereo) [Example 36, [1S-[1a,2b,3b,4a(S*)]]-4-[7-[[2-(5-chloro-2-thienyl)-1-methylethyl]amino]-3H-imidazo[4,5-b]pyridin-3-yl]-N-ethyl-2,3-dihydroxycyclopentanecarboxamide]
A1 receptor
  IC50: 8.8 nM
A2 receptor
  IC50: 43.4 nM
Swine coronary arteries; [2]
  IC50: 0.493 µM

## CCNC(=O)[C@H]1O[C@@H](n2cnc3c(NC4CC=CCC4c4cccs4)ncnc32)[C@H](O)[C@@H]1O (single isomer, unassigned) [Example 5, N6-[trans-2-(thiophen-2-yl)cyclohex-4-en-1-yl]adenosine-5′-N-ethylcarboxamide]
A1 receptor
  IC50: 4.26 nM
A2 receptor
  IC50: 91 nM
Swine coronary arteries; [1]
  IC50: 0.068 µM

## CCNC(=O)[C@H]1O[C@@H](n2cnc3c(NC4CC=CCC4c4cccs4)ncnc32)[C@H](O)[C@@H]1O (single isomer, unassigned) [Example 22, N^6-[trans-2-(thiophen-2-yl)-cyclohex-4-en-1-yl]adenosine-5-N-ethyl carboxamide]
A1 receptor
  IC50: 2.69 nM
A2 receptor
  IC50: 29.5 nM
Swine coronary arteries; [1]
  IC50: 0.1 µM

## CCNC(=O)C1CC(n2cnc3c(NC(CC)Cc4sccc4Cl)ccnc32)C(O)C1O (single isomer, unassigned) [Example 39, [1S-[1a,2b,3b,4a(S*)]]4-[7-[[2-(3-chloro-2-thienyl)-1-ethylethyl]amino]-3H-imidazo[4,5-b]pyridin-3-yl]-N-ethyl-2,3-dihydroxycyclopentane-carboxamide]
A1 receptor
  IC50: 3.98 nM
A2 receptor
  IC50: 46.8 nM

## CCNC(=O)C1CC(n2cnc3c(N[C@H](C)Cc4ccc(Cl)s4)ncnc32)C2OC(C)(C)OC12 (single isomer, unassigned; (-)) [6(1)]
A1 receptor
  IC50: > 1000 nM
A2 receptor
  IC50: > 1000 nM
Swine coronary arteries; [2]
  IC50: 19.1 µM

## CCNC(=O)C1CC(n2cnc3c(NC(C)Cc4cccs4)ncnc32)C(O)C1O (single isomer, unassigned; (-)) [Example 27]
A1 receptor
  IC50: 5.01 nM
A2 receptor
  IC50: 29.5 nM
Swine coronary arteries; [1]
  IC50: 0.043 µM

## CCNC(=O)C1CC(n2cnc3c(N[C@H](CC)Cc4sccc4Cl)ncnc32)C(O)C1O (single isomer, unassigned; (-)) [Example 34]
A1 receptor
  IC50: 1.6 nM
A2 receptor
  IC50: 23 nM
Swine coronary arteries; [2]
  IC50: 0.072 µM

## OC[C@H]1O[C@@H](n2cnc3c(NCCSc4nc5ccccc5s4)ncnc32)[C@H](O)[C@@H]1O [Example 10, N^6-[2-(2′-thiobenzothiazolyl)-ethyl]adenosine]
A1 receptor
  IC50: 3.8 nM
A2 receptor
  IC50: > 1000 nM

## Cc1nc(CCNc2ncnc3c2ncn3[C@@H]2O[C@H](CO)[C@@H](O)[C@H]2O)cs1 [Example 14, N^6-[2-(2′-methyl-4′-thiazolyl)-ethyl]adenosine]
A1 receptor
  IC50: 79.4 nM
A2 receptor
  IC50: > 1000 nM

## OC[C@H]1O[C@@H](n2cnc3c(NCCc4nc(-c5ccccc5)cs4)ncnc32)[C@H](O)[C@@H]1O [Example 16, N^6-[2-(4′-phenyl-2′-thiazolyl)-ethyl]adenosine]
A1 receptor
  IC50: 1.7 nM
A2 receptor
  IC50: > 1000 nM

## CC(C)(Cc1cccs1)Nc1ncnc2c1ncn2[C@@H]1O[C@H](CO)[C@@H](O)[C@H]1O [Example 17, N^6-[2-(1,1-dimethyl-2′-thiophenyl)ethyl]adenosine]
A1 receptor
  IC50: 67.6 nM
A2 receptor
  IC50: 5250 nM
Swine coronary arteries; [2]
  IC50: 18.8 µM

## OC[C@H]1O[C@@H](n2cnc3c(NCc4nc(-c5ccccc5)cs4)ncnc32)[C@H](O)[C@@H]1O [Example 19]
A1 receptor
  IC50: 36 nM
A2 receptor
  IC50: 1000 nM
Swine coronary arteries; [2]
  IC50: 0.75 µM

## CC(Cc1nccs1)Nc1ncnc2c1ncn2[C@@H]1O[C@H](CO)[C@@H](O)[C@H]1O (stereo partly shown) [Example 20, N^6-[1-(thiazol-2-yl)prop-2-yl]-adenosine]
A1 receptor
  IC50: 3.98 nM
A2 receptor
  IC50: 158 nM

## CCC(Cc1ccc(Cl)s1)Nc1ncnc2c1ncn2[C@@H]1O[C@H](CO)[C@@H](O)[C@H]1O (stereo partly shown) [Example 21, N^6-[1-(5″-chlorothien-2″-yl)-2-butyl]adenosine]
A1 receptor
  IC50: 0.09 nM
A2 receptor
  IC50: 14.8 nM

## CCC(Cc1sccc1Cl)Nc1ncnc2c1ncn2[C@@H]1O[C@H](CO)[C@@H](O)[C@H]1O (stereo partly shown) [Example 31, N^6-[1-ethyl-2-(3-chlorothien-2-yl)ethyl]adenosine]
A1 receptor
  IC50: 0.03 nM
A2 receptor
  IC50: 8.9 nM

## C[C@H](Cc1sccc1Cl)Nc1ncnc2c1ncn2[C@@H]1O[C@H](CO)[C@@H](O)[C@H]1O [Example 32, N^6-[1-methyl-2-(3-chlorothien-2-yl)ethyl]adenosine]
A2 receptor
  IC50: 45 nM

## CCNC(=O)[C@H]1C[C@@H](n2cnc3c(N[C@H](C)Cc4ccc(Cl)s4)[n+]([O-])cnc32)[C@H](O)[C@@H]1O [Example 35, (2S)-2a,3a-dihydroxy-4β-[N6-[2-(5-chloro-2-thienyl)-(1R)-1-methylethyl]amino-9-adenyl]cyclopentane-1β-N-ethylcarboxamide-N^1-oxide]
A1 receptor
  IC50: 1090 nM
A2 receptor
  IC50: 6350 nM
Swine coronary arteries; [1]
  IC50: 3.3 µM

## CCNC(=O)[C@H]1C[C@@H](n2cnc3c(NC(CC)Cc4sccc4Cl)ccnc32)[C@H](O)[C@@H]1O (stereo partly shown) [Example 37]
A1 receptor
  IC50: 16.2 nM
A2 receptor
  IC50: 110 nM
Swine coronary arteries; [1]
  IC50: 0.45 µM

## CCNC(=O)[C@H]1C[C@@H](n2cnc3c(N[C@H](CC)Cc4ccc(Cl)s4)ccnc32)[C@H](O)[C@@H]1O [Example 41]
A1 receptor
  IC50: 14.2 nM
A2 receptor
  IC50: 158 nM

## CCNC(=O)[C@H]1C[C@@H](n2cnc3c(N[C@H](C)Cc4ccc(Cl)s4)ncnc32)[C@H](OC(=O)OC)[C@@H]1OC(=O)OC [Example 42, (2S)-2a,3a-bis-methoxycarbonyloxy-4β-[N6-[2-(5-chloro-2-thienyl)-(1R)-1-methylethyl]amino-9-adenyl]cyclopentane-1β-N-ethylcarboxamide]
A1 receptor
  IC50: > 1000 nM
A2 receptor
  IC50: > 10000 nM
Swine coronary arteries; [1]
  IC50: 2.44 µM

## CCNC(=O)[C@H]1C[C@@H](n2cnc3c(N[C@H](C)Cc4ccc(Cl)s4)ncnc32)[C@@H]2OC(OCC)O[C@@H]21 (stereo partly drawn) [Example 43, (2S)-2a,3a-dihydroxy-4β-[N6-[2-(5-chloro-2-thienyl)-(1R)-1-methylethyl]amino-9-adenyl]cyclopentane-1β-N-ethylcarboxamide ethoxymethylene acetal]
A1 receptor
  IC50: 8430 nM
A2 receptor
  IC50: > 10000 nM
Swine coronary arteries; [1]
  IC50: 7.83 µM

## CCNC(=O)[C@H]1C[C@@H](n2cnc3c(N[C@H](C)Cc4ccc(Cl)s4)ncnc32)[C@H](OC(=O)NC)[C@@H]1OC(=O)NC [Example 45]
A1 receptor
  IC50: 6350 nM
A2 receptor
  IC50: > 10000 nM
Swine coronary arteries; [1]
  IC50: 4.1 µM

## CO[C@@H]1[C@H](O)[C@@H](CO)O[C@H]1n1cnc2c(N[C@H](C)Cc3sccc3Cl)ncnc21 [Example 47, N^6-[2-(3-chloro-2-thienyl)-(1R)-1-methylethyl]-2′-O-methyladenosine]
A1 receptor
  IC50: 23 nM
A2 receptor
  IC50: 2820 nM
Swine coronary arteries; [1]
  IC50: 5.7 µM

## (2S)-2a,3a-dihydroxy-4β-[N6-[2-(5-chloro-2-thienyl)-(1R)-1-methylethyl]amino-9-adenyl]cyclopentane-1β-N-ethylcarboxamide-2,3-carbonate [Example 44]
A1 receptor
  IC50: 55 nM
A2 receptor
  IC50: 331 nM
Swine coronary arteries; [2]
  IC50: 0.316 µM
